What is called melting point is the temperature, or range, at which the solid turns liquid. For orientation: Ki means a dissociation constant, usually derived from enzyme kinetics or from competition with a known ligand. One may read the ED50 as the dose at which the effect has come halfway, by size or by number of responders. The term EC50 denotes the midpoint of the concentration-response curve. One may read the Emax as the maximal effect, on the per cent scale that the assay sets.

Consider nine compounds from paper PMC4053365 (PLoS ONE, 2014).

Counter-ions that a name gives are not always drawn.

The test system of one data set is rodents. The note with it: fraction or fold of morphine potency; cited from earlier work.
The target in a further data set is MOP. Also noted: method as in earlier work. The note with it: read-out: Ki MOP (previously reported); cited from earlier work.
Another data set addresses DOP. Also noted: method as in earlier work. The following applies: read-out: Ki DOP (previously reported); cited from earlier work.
The next data set has as its target KOP. Details: method as in earlier work. The note with it: read-out: Ki KOP (previously reported); cited from earlier work.
For the next data set, the target named is T1, MOP receptor (Rattus norvegicus, UniProt P33535).
T1 construct: Membranes were prepared from Sprague-Dawley rat or guinea pig brains; from tissue; host or cells: Sprague-Dawley rat brain membranes
T1 sequence (P33535 whole entry): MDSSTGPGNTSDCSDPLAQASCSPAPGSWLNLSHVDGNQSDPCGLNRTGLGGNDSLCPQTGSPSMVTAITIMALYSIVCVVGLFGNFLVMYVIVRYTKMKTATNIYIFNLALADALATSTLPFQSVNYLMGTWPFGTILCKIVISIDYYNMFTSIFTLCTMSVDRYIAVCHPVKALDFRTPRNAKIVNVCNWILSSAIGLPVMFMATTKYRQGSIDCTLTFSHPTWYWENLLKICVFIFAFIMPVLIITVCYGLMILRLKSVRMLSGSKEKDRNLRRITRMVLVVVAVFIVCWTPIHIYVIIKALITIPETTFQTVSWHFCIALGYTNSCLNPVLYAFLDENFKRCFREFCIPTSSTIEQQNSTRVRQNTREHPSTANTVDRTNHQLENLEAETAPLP
The experiment in a line: Radioligand binding assay, [3H]DAMGO, rat brain membranes. The following applies: for Selectivity ratio DOP/MOP / Selectivity ratio KOP/MOP: ratio of Ki values.

The target of another data set is T2, DOP receptor (Rattus norvegicus, UniProt P33533).
T2 construct: Membranes were prepared from Sprague-Dawley rat or guinea pig brains; from tissue; host or cells: Sprague-Dawley rat brain membranes
T2 sequence (P33533 whole entry): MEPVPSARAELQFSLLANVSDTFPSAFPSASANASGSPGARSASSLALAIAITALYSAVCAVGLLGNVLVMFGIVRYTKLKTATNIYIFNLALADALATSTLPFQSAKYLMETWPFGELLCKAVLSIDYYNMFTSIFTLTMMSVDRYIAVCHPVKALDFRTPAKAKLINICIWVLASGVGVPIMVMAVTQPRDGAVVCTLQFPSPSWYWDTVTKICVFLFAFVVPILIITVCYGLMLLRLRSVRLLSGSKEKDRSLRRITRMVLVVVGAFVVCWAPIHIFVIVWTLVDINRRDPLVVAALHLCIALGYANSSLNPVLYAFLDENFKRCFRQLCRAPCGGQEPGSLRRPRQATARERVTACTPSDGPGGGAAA
The data set is described as follows: Radioligand binding assay, [3H][Ile5,6]deltorphin II, rat brain membranes.

The target of another data set is T3, KOP receptor (Cavia porcellus, UniProt P41144).
T3 construct: Membranes were prepared from Sprague-Dawley rat or guinea pig brains; from tissue; host or cells: guinea pig brain membranes
T3 sequence (P41144 whole entry): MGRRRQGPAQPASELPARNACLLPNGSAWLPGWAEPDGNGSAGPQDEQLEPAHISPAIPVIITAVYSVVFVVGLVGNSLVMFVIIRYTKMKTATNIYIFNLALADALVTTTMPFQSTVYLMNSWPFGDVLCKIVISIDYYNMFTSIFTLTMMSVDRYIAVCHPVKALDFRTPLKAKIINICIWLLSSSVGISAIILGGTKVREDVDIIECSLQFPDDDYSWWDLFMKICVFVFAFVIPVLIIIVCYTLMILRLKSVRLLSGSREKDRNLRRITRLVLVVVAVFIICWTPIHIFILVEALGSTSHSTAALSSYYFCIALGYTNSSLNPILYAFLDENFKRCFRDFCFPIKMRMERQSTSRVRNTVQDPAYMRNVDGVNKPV
The experiment in a line: Radioligand binding assay, [3H]U69,593, guinea pig brain membranes.

For data set [1], the system named is mice. The data set is described as follows: Tail-flick test (acute thermal nociception). Format: in vivo. The note with it: s.c.; for ED50: Mus musculus, sc, 0.5 h, 30 min after administration, read-out: ED50 (95% CL) Tail-flick test. In general terms: Hot-plate and tail-flick tests time the reaction to a heat stimulus.
Data set [2] relates to mice. The experiment in a line: Observation of locomotor activity and sedation during antinociception testing. Format: in vivo. The note with it: s.c., any tested dose, about 3- to 4-fold the analgesic ED50 dose.
Data set [3] concerns the target T4, human KOP receptor (Homo sapiens, UniProt P41145). The data set is classed as cell-based. Also noted: expressed in transfected cells; host or cells: CHO (CHOhKOP) stably expressing Gαqi5, whole cells.
In data set [4] the target is T5, human DOP receptor (Homo sapiens, UniProt P41143). The data set is classed as cell-based. Details: expressed in transfected cells; host or cells: CHO (CHOhDOP) stably expressing GαqG66Di5, whole cells. The note with it: CHO cells co-expressing human DOP and GαqG66Di5; inactive = inactive up to 10 µM; crc = concentration response curve.
T5 sequence (P41143 whole entry): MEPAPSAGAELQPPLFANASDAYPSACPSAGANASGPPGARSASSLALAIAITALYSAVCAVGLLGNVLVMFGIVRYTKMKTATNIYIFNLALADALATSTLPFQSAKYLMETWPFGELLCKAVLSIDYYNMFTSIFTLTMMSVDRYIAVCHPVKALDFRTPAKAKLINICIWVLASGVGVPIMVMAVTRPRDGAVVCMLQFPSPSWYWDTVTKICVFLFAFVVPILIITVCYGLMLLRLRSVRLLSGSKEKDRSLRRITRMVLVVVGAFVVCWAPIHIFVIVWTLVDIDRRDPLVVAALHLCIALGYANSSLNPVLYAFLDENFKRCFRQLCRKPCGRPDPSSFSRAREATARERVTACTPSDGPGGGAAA
Data set [5] concerns mice. The experiment in a line: Hot-plate test (acute thermal nociception). The following applies: s.c.; for ED50: Mus musculus, sc, 0.5 h, 30 min after administration, read-out: ED50 (95% CL) Hot-plate test. The data set is classed as in vivo.
In data set [6] the target is T6, human MOP receptor (Homo sapiens, UniProt P35372). The experiment in a line: biochemical. Format: biochemical. Details: expressed in transfected cells; host or cells: CHO (CHOhMOP) cell membranes.
T6 sequence (P35372 whole entry): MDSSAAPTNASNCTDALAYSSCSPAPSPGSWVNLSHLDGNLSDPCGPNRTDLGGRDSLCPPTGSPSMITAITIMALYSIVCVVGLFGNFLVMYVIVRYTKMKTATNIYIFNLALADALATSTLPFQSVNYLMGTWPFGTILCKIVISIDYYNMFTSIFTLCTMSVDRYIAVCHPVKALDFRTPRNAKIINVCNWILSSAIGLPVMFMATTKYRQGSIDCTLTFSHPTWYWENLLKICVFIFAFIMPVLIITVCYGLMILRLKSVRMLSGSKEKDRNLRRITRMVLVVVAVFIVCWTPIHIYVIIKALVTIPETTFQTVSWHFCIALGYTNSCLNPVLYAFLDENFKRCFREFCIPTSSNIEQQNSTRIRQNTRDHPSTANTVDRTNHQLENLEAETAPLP
The target of data set [7] is T5, human DOP receptor. The experiment in a line: biochemical. Details: expressed in transfected cells; host or cells: CHO (CHOhDOP) cell membranes.
Data set [8] addresses T4, human KOP receptor. The data set is described as follows: biochemical. Also noted: expressed in transfected cells; host or cells: CHO (CHOhKOP) cell membranes.
The target of data set [9] is T6, human MOP receptor. The data set is described as follows: cell-based. The data set is classed as cell-based. Also noted: expressed in transfected cells; host or cells: CHO (CHOhMOP) stably expressing Gαqi5, whole cells.

T4 sequence (P41145 whole entry): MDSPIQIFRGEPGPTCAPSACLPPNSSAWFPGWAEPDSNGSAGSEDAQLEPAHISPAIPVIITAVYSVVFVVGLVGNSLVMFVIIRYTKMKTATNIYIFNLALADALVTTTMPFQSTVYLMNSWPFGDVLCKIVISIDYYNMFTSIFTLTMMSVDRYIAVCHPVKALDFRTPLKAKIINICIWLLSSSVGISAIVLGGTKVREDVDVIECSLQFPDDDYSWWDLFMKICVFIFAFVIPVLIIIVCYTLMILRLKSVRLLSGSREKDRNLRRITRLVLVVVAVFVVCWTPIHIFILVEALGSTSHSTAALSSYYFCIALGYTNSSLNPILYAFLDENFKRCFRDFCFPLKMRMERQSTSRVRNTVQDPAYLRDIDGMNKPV

`Oc1ccc2c3c1OC1C(O)C=CC4C(C2)N(Cc2ccccc2)CCC341` (centres unmarked) [N-benzylnormorphine]: in the data set on rodents, the “Analgesic potency relative to morphine” value is “less than one-tenth”.
Compound `O=C1CC[C@@]2(O)[C@H]3Cc4ccc(O)c5c4[C@@]2(CCN3Cc2ccccc2)[C@H]1O5` [Compound 5, N-Benzylnoroxymorphone] showed a melting point of 235 to 237 °C. On MOP, the Ki is […]. Also, the Ki on DOP is […]. Besides, on KOP, the Ki was […].
Turning to `Oc1ccc2c3c1O[C@H]1[C@@H](O)C=C[C@@]4(O)[C@@H](C2)N(CCc2ccccc2)CC[C@]314` [Compound 4, N-Phenethyl-14-hydroxynormorphine], the inhibitory constant (Ki) on MOP receptor came to 0.0046 ± 1e-05 µM; at DOP receptor, 0.163 ± 0.017 µM; at KOP receptor it was 0.513 ± 0.066 µM. Moreover, the “MOP receptor affinity lower than 14-unsubstituted counterpart 1” value at MOP receptor (vs compound 1) is “about 5 fold”. Also, the “MOP receptor binding affinity increase over 14-hydroxymorphine (3)” value on MOP receptor (vs compound 3) is “about 4 fold”. For the same compound, the ED50 in the data set with mice [1] is 1.14 mg/kg. For the same compound, the “Locomotor activity and sedative effects” value in the data set on mice [2] was “no major alterations in locomotor activity and no sedative effects”. On human KOP receptor [3], the “Calcium mobilization assay KOP EC50” value was “inactive ^d”. Also, the “Calcium mobilization assay KOP Emax” value on human KOP receptor [3] was “inactive ^d”. Further, at human DOP receptor [4], the “Calcium mobilization assay DOP EC50” value was “inactive ^d”.
For the compound `CN1CC[C@]23c4c5ccc(O)c4O[C@H]2C(=O)CC[C@@]3(O)[C@H]1C5` [Oxymorphone, reference compound], the ED50 in the data set on mice [5] came to 0.38 mg/kg; in the data set with mice [1] it was 0.35 mg/kg.
Consider `Oc1ccc2c3c1O[C@H]1[C@@H](O)C=C[C@H]4[C@@H](C2)N(CCCc2ccccc2)CC[C@@]341` [Compound 2, N-phenylpropylnormorphine], for which, at MOP receptor, affinity was put at a Ki of 0.0795 ± 0.0011 µM, the “Selectivity ratio DOP/MOP” value turned out to be 11 and the “Selectivity ratio KOP/MOP” value was determined as 7. Also, on DOP receptor, the affinity, expressed as Ki, was 0.869 ± 0.171 µM. The same compound registered an inhibitory constant (Ki) on KOP receptor of 0.565 ± 0.024 µM.
`Oc1ccc2c3c1O[C@H]1[C@@H](O)C=C[C@H]4[C@@H](C2)N(CCc2ccccc2)CC[C@@]341` [Compound 1, N-phenethylnormorphine] had a melting point of 255 to 257 °C. Besides, at MOP receptor, the Ki was 0.00093 ± 0.00014 µM, the “Selectivity ratio DOP/MOP” value worked out at 40 and the “Selectivity ratio KOP/MOP” value was determined as 115. At MOP receptor (vs morphine), the “MOP receptor affinity greater than morphine” value worked out at 7 fold. Moreover, the Ki on DOP receptor stood at 0.037 ± 0.0055 µM. In addition, on KOP receptor, the affinity corresponds to a Ki of 0.107 ± 0.018 µM. The ED50 in the data set on mice [5] was found to be 0.11 mg/kg. Moreover, the “Hot-plate test, more effective than morphine” value in the data set on mice [5] (vs morphine) amounted to 22 fold. Besides, the ED50 in the data set with mice [1] was 0.11 mg/kg. For the same compound, the “Tail-flick test, more effective than morphine” value in the data set with mice [1] (vs morphine) is listed as 28 fold. Besides, in the data set on mice [2], the “Locomotor activity and sedative effects” value is “no major alterations in locomotor activity and no sedative effects”. In addition, at human MOP receptor [6], the midpoint of the response, the EC50, lay at 0.0103 ± 0.0009 µM; the “MOP agonist potency in [35S]GTPγS more potent than DAMGO” value was 2 fold; the “MOP agonist potency in [35S]GTPγS more potent than morphine” value was “about 3 fold”. Also, the Emax at human MOP receptor [6] (read-out: [35S]GTPγS functional assay MOP Emax) amounted to 113 ± 8%. The EC50 on human DOP receptor [7] was 0.712 ± 0.086 µM. In addition, at human DOP receptor [7] (read-out: [35S]GTPγS functional assay DOP Emax), the Emax came to 138 ± 17%. At human KOP receptor [8], this compound displayed an EC50 of 1.05 µM. Further, the Emax at human KOP receptor [8] (read-out: [35S]GTPγS functional assay KOP Emax) was determined as 19 ± 2%. Moreover, on human MOP receptor [9], the “Calcium mobilization MOP more active than 14-hydroxy analogue 4” value is “about 3 fold”; the “Calcium mobilization MOP more potent than morphine” value was “about 3 fold”; the midpoint of the response, the EC50, lay at 0.0488 ± 0.014 µM. Besides, the Emax at human MOP receptor [9] (read-out: Calcium mobilization assay MOP Emax) was 70 ± 4%. Also, at human KOP receptor [3], the “Calcium mobilization assay KOP EC50” value is “inactive ^d” and the “Calcium mobilization assay KOP Emax” value was “inactive ^d”. In addition, the “Calcium mobilization assay DOP EC50” value at human DOP receptor [4] was “crc incomplete ^e”.
On to `O=C1CC[C@@]2(O)[C@H]3Cc4ccc(O)c5c4[C@@]2(CCN3CCc2ccccc2)[C@H]1O5` [Compound 6, N-phenethylnoroxymorphone], for which the ED50 in the data set with mice [5] stood at 0.18 mg/kg; with mice [1], 0.15 mg/kg. Besides, the “Antinociceptive potency higher than 6-hydroxy counterpart 4” value in the data set on mice [5] (hot-plate and tail-flick tests, vs compound 4) is on record as “up to 8 fold”. The “Antinociceptive potency higher than oxymorphone” value with mice [5] (hot-plate and tail-flick tests, vs oxymorphone) was “about 2 fold”. The “Locomotor activity and sedative effects” value with mice [2] was “no major alterations in locomotor activity and no sedative effects”.
On to N-cyclohexylethylnormorphine, for which the “Analgesic potency relative to morphine” value in the data set on rodents is recorded as “one-third”.
In turn, `O=C1CC[C@@]2(O)[C@H]3Cc4ccc(O)c5c4[C@@]2(CCN3CCc2ccccc2)[C@H]1O5` (as salt: HCl) [Compound 6, N-phenethylnoroxymorphone] registered a melting point of 85 to 90 °C.
